Laboratory results: paper PMC9732672, “Pyrazolyl-s-triazine with indole motif as a novel of epidermal growth factor receptor/cyclin-dependent kinase 2 dual inhibitors” (Frontiers in Chemistry, 2022)

Columns and labels:
[1] = tested on: A549 (non-small cell lung cancer) cells; assay: MTT cytotoxicity assay, A549; type: cell-based, human; details: Homo sapiens, A549, average ±SD of four independent experiments, read-out: IC50 ± STDEV, A549
Procedure: (§1) The parental MCF7 (breast cancer cell line), A549 (non-small cell lung cancer cell line), and human dermal fibroblast (HDF) (human dermal cell line) cells were obtained from the American Type Culture Collection (ATCC, Manassas, VA, United States). MCF7 and A549 cells were cultured in RPMI 1640 medium (EuroClone, Italy) supplemented with 10% (v/v) heat-inactivated fetal bovine serum (FBS) (EuroClone, Italy), 1% penicillin-streptomycin (EuroClone, Italy), and 2 mM L-glutamine.
(§2) The cytotoxic activity of the tested compounds were tested using MTT assay. […] Then, the cell viability was recored and IC50 values were calcualted. ([Mosmann, 1983]; [Nafie et al., 2020c]).

[2] = tested on: MCF-7 (breast cancer) cells; assay: MTT cytotoxicity assay, MCF-7; type: cell-based, human; details: Homo sapiens, MCF7, average ±SD of four independent experiments, read-out: IC50 ± STDEV, MCF-7
Procedure: as §1, §2

[3] = tested on: HDFs (non-cancerous human dermal fibroblasts); assay: MTT cytotoxicity assay, HDFs; type: cell-based; details: Homo sapiens, Fibroblast, non-cancerous cells, average ±SD of four independent experiments, read-out: IC50 ± STDEV, HDFs
Procedure: as §1, §2

Row | Structure (SMILES) | IC50 [1] [µM] | IC50 [2] [µM] | IC50 [3] [µM] | melting point [°C]
1 | N#Cc1cnn(-c2nc(N3CCOCC3)nc(N3CCOCC3)n2)c1-c1c[nH]c2ccccc12 [Compound 5b, 1-(4,6-Dimorpholino-1,3,5-triazin-2-yl)-5-(1H-indol-3-yl)-1H-pyrazole-4 carbonitrile] | > 500 | > 500 | > 500 | 328 to 330
2 | N#Cc1cnn(-c2nc(N3CCCCC3)nc(N3CCOCC3)n2)c1-c1c[nH]c2ccccc12 [Compound 5c, 5-(1H-Indol-3-yl)-1-(4-morpholino-6-(piperidin-1-yl)-1,3,5-triazin-2-yl)-1H-pyrazol4-carbonitrile] | 223 ± 88.3 | 152 ± 50.1 | 537 ± 71.6 | –
3 | N#Cc1cnn(-c2nc(Nc3ccccc3)nc(N3CCCCC3)n2)c1-c1c[nH]c2ccccc12 [Compound 5d, 5-(1H-Indol-3-yl)-1-(4-(phenylamino)-6-(piperidin-1-yl)-1,3,5-triazin-2-yl)-1H-pyrazole-4-carbonitrile] | 10.3 ± 2.64 | 16.8 ± 0.78 | 115 ± 14.8 | 298 to 299
4 | N#Cc1cnn(-c2nc(Nc3ccc(Cl)cc3)nc(N3CCCCC3)n2)c1-c1c[nH]c2ccccc12 [Compound 5e, 1-(4-((4-Chlorophenyl)amino)-6-(piperidin-1-yl)-1,3,5-triazin-2-yl)-5-(1H-indol-3-yl)-1H-pyrazole-4-carbonitrile] | > 500 | > 500 | > 500 | –
5 | N#Cc1cnn(-c2nc(Nc3ccc(Br)cc3)nc(N3CCCCC3)n2)c1-c1c[nH]c2ccccc12 [Compound 5f, 1-(4-((4-Bromophenyl)amino)-6-(piperidin-1-yl)-1,3,5-triazin-2-yl)-5-(1H-indol-3-yl)-1H-pyrazole-4-carbonitrile] | > 500 | > 500 | > 500 | –
6 | COc1ccc(Nc2nc(N3CCCCC3)nc(-n3ncc(C#N)c3-c3c[nH]c4ccccc34)n2)cc1 [Compound 5g, 5-(1H-Indol-3-yl)-1-(4-((4-methoxyphenyl)amino)-6-(piperidin-1-yl)-1,3,5-triazin-2-yl)-1H-pyrazole-4-carbonitrile] | > 500 | > 500 | > 500 | 273 to 275
7 | N#Cc1cnn(-c2nc(Nc3ccccc3)nc(N3CCOCC3)n2)c1-c1c[nH]c2ccccc12 [Compound 5h, 5-(1H-Indol-3-yl)-1-(4-morpholino-6-(phenylamino)-1,3,5-triazin-2-yl)-1H-pyrazole-4-carbonitrile] | 7.62 ± 0.85 | – | 23.8 ± 3.37 | 314 to 316
8 | N#Cc1cnn(-c2nc(Nc3ccc(Cl)cc3)nc(N3CCOCC3)n2)c1-c1c[nH]c2ccccc12 [Compound 5i, 1-(4-((4-Chlorophenyl)amino)-6-morpholino-1,3,5-triazin-2-yl)-5-(1H-indol-3-yl)-1H-pyrazole-4-carbonitrile] | 44.5 ± 19.2 | 59.8 ± 0.81 | > 500 | –
9 | N#Cc1cnn(-c2nc(Nc3ccc(Br)cc3)nc(N3CCOCC3)n2)c1-c1c[nH]c2ccccc12 [Compound 5j, 1-(4-((4-Bromophenyl)amino)-6-morpholino-1,3,5-triazin-2-yl)-5-(1H-indol-3-yl)-1H-pyrazole-4-carbonitrile] | 23.2 ± 2.27 | 51.1 ± 10.3 | > 500 | –
10 | COc1ccc(Nc2nc(N3CCOCC3)nc(-n3ncc(C#N)c3-c3c[nH]c4ccccc34)n2)cc1 [Compound 5k, 5-(1H-Indol-3-yl)-1-(4-((4-methoxyphenyl)amino)-6-morpholino-1,3,5-triazin-2-yl)-1H-pyrazole-4-carbonitrile] | > 500 | > 500 | > 500 | 293 to 295
11 | COc1cccc2c1C(=O)c1c(O)c3c(c(O)c1C2=O)C[C@@](O)(C(=O)CO)C[C@@H]3O[C@H]1C[C@H](N)[C@H](O)[C@H](C)O1 [Doxorubicin, reference compound] | 0.28 ± 0.11 | 0.06 ± 0.02 | 0.42 ± 0.27 | –
